For one assay, the system named is IL-6 in huPBMCs. As to the kind of experiment: IL-6 inhibition in LPS-stimulated human peripheral blood mononuclear cells (HTRF). The assay is classed as cell-based. The note with it: for percent in parentheses beside EC50 >10 μM: LPS-stimulated huPBMCs, given only where EC50 >10 μM (top concentration 10 μM); for EC50: LPS-stimulated (50 ng/mL) huPBMCs, 22 hours, dose-response starting from 10 μM.

For assay [1], the system named is α-smooth muscle actin (αSMA) in LL29 cells. As to the kind of experiment: Fibrosis assay: TGF-β1 treated primary human fibroblasts from IPF patients (LL29), αSMA staining. The note with it: for percent in parentheses beside EC50 >10 μM: LL29 cells treated with TGF-β1, given only where EC50 >10 μM (top concentration 10 μM); for EC50: LL29 cells treated with TGF-β1 (20 ng/mL), 4 days. It counts as cell-based.

The subject of assay [2] is SW480 colon carcinoma cells. As to the kind of experiment: Cell viability assay (CellTiter-Glo) in SW480 cells. The assay is classed as cell-based, human. The note with it: for EC50: four days incubation.
Another assay deals with IL-6, BV-2 cells. Description: Secreted cytokines in Lipopolysaccharide-stimulated BV-2 mouse microglial cells: IL-6. The note with it: LPS 250 ng/mL for 5 h. It counts as cell-based. The method, then: (§1) Representative compounds were screened using the cell-based assay procedure for secreted cytokines in a Lipopolysaccharide-stimulated mouse glial cell line described below.
(§2) BV-2 cells (mouse microglial cells) were cultured in 1:1 DMEM medium supplemented with 10% FBS, and 1% penicillin/streptomycin.
(§3) BV-2 cells are plated at 35,000 cells/well in a volume of 100 ul for at least 4 hours before compounds are added. DMSO-resuspended compounds were first dispensed in a 96 well plate and serial diluted from 10 μM to 4.6 nM final concentration in medium. Compounds were added to cells overnight. Two hundred fifty ng per milliliter of lipopolysaccharide (Escherichia coli 055:B5, SIGMA) was added for 5 h. Supernatant is removed and saved for further cytokine detection. The original plates with seeded cells were tested for cytotoxicity by measure of adenosine triphosphate (ATP) release by adding CellTiter-Glo® diluted 1:4 in distilled water (G7573, Promega) and transferring lysed cells to a completely black 96-well plate to be read with the Cytation3. Supernatant was then diluted 1:2 with a diluent from V-PLEX cytokine Kit and directly tested for the secreted cytokines TNFα, IL-6 and KC-GRO using electrochemiluminescence (Meso Scale Discovery). The standard curve for each cytokine was used to convert the electrochemiluminescent signal into pg of protein per mL.

Assay [3] relates to Wnt activity (Sp5-Luc reporter, TCF/LEF binding sites) in SW480 colon carcinoma cells. Description: Screening assay for Wnt activity: Sp5-Luc reporter gene assay in SW480 cells. The assay is classed as cell-based, human. The note with it: 36 to 48 hours. In general terms: A reporter such as luciferase makes a cellular process visible.
Description: The screening assay for Wnt activity is described as follows.
Following incubation, 15 μl of BriteLite Plus luminescence reagent (Perkin Elmer) was added to each well of the 384-well assay plates. The plates were placed on an orbital shaker for 2 min and then luminescence was quantified using the Envision (Perkin Elmer) plate reader.
The target in another assay is DYRK1A kinase (Homo sapiens (Human), UniProt Q13627). Description: DYRK1A kinase assay (Ser/Thr 18 peptide Z-lyte FRET). The assay is classed as biochemical.
For assay [4], the system named is Tau phosphorylation at Ser396 (pSer396) in SH-SY5Y cells. Description: Tau phosphorylation (pSer396) assay in SH-SY5Y cells, ELISA/western blot. The assay is classed as cell-based, human. Background: ELISA stands for enzyme-linked immunosorbent assay.
Description: Two days before treatment, cells were seeded onto 96 well plates at 5×10^4 cells/well.
Wells were visually checked for cell death or change in morphology and supernatants were tested for cytotoxicity by measurement of lactate dehydrogenase release (LDH, CytoToxOne kit, Promega) if necessary.
Cells were lysed with RIPA buffer complemented with phosphatase and protease inhibitors then lysates were spun down at 12,000 g for 10 min to remove any cellular debris. Lysates are then either directly tested for pSer396 by ELISA (Life Technology, Kit KHB7031) or loaded on NuPage Bis-Tris gels for western blot analysis. Colorimetric detection of ELISA signal is performed by Cytation3 plate reader (Biotek) and the chemiluminescence signal for HRP-linked antibodies used in western blotting is detected using a Carestream Image Station. The same pSer396 antibody is used for detection of pTau in both assays.
For a further assay, the target named is GSK3β kinase (Homo sapiens (Human), UniProt P49841). Description: GSK3β kinase assay (Ser/Thr 09 peptide Z-lyte FRET). The assay is classed as biochemical.
Assay [5] deals with secreted β-amyloid 40 (Aβ40) peptide, SH-SY5Y-APP cells. Description: Secreted β-amyloid 40 peptide assay in APP overexpressing SH-SY5Y-APP cells. The note with it: Homo sapiens, overnight (16-18 hours). It counts as cell-based.
Description: Representative compounds were screened using the cell-based assay procedure for secreted β-amyloid 40 (Aβ340) peptide in an APP overexpressing cell line described below.
SH-SY5Y cells were infected with lentivirus to overexpress amyloid (A4) beta precursor protein (APP), hereafter referred to as the SH-SY5Y-APP cells. […] Culture medium was changed 18 h post-transfection before a first batch of viral supernatant was then harvested at 42 h post-transfection. Culture medium was replenished once more before a second batch of viral supernatant was harvested 66 h post-transfection.
SH-SY5Y cells were seeded onto 6-well plates at 5.0×10^5 cells/well and incubated overnight at 37° C. Cells were then infected with viral supernatant at concentrations ranging from 10%→100% viral supernatant (diluted in Opti-MEM as appropriate), with 10 μg/mL Polybrene added for permeability (H9268, Sigma). […]
The cell assay procedure start 18 h prior to treatment, as SH-SY5Y-APP cells were seeded onto 96-well plates at 2.0×10^4 cells/well. […] The original plates with seeded cells were tested for cytotoxicity by measure of adenosine triphosphate (ATP) release by adding CellTiter-Glo® diluted 1:4 in distilled water (G7573, Promega) and transferring lysed cells to a completely black 96-well plate to be read with the Cytation3. […]
A further assay deals with TNFα, BV-2 cells. As to the kind of experiment: Secreted cytokines in Lipopolysaccharide-stimulated BV-2 mouse microglial cells: TNFα. The note with it: LPS 250 ng/mL for 5 h. The assay is classed as cell-based. The method, then:
as §1, §2, §3

The test system of another assay is KC-GRO, BV-2 cells. Description: Secreted cytokines in Lipopolysaccharide-stimulated BV-2 mouse microglial cells: KC-GRO. It counts as cell-based. The note with it: LPS 250 ng/mL for 5 h. The method, then: as §1, §2, §3
[6] abbreviates: Homo sapiens, overnight (16-18 h) exposure, pSer396 Tau ELISA, read-out: pSer396 Tau EC50.
Setting [7] is: Homo sapiens, Fibroblast, 96 h, dose-response 10 μM to 0.94 nM.
Where [8] appears, read: DYRK1A kinase Z-lyte assay, 30 μM ATP, one hour at room temperature, text calls values IC50.
Setting [9] is: GSK3β kinase Z-lyte assay, 46 μM ATP, one hour at room temperature, text calls values IC50.
[10] abbreviates: overnight (16-18 h) exposure, pSer396 Tau ELISA, read-out: pSer396 Tau EC50.

We go through 15 compounds from patent publication US10508099B2, “Isoquinolin-3-yl carboxamides and preparation and use thereof” (Samumed, LLC, priority 2016, dated 2019).

Where two headings read alike, the source gives them in different places.

Sequence of GSK3β kinase (P49841 whole entry): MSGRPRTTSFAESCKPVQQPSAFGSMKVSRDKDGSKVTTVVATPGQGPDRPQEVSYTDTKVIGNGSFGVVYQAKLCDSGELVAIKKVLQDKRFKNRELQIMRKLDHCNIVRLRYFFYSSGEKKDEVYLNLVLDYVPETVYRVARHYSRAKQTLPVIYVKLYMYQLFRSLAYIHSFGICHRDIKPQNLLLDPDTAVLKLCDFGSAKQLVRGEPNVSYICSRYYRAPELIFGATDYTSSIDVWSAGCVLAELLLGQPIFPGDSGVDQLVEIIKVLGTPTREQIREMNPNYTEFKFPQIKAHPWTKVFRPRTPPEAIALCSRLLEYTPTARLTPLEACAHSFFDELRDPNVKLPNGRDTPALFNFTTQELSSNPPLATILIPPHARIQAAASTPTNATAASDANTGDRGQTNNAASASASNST
Description for IL-6 in huPBMCs: After 22 hour incubation, a mixture of anti-IL6 XL665 and anti-IL-6 Cryptate diluted in reconstitution buffer (Catalog #62IL6PEC, Cisbio Inc., Bedford, Mass.) was added to each well. […] All samples were processed in duplicate. […] EC50 was determined using software generated by Dotmatics Limited (Windhill Bishops Stortford Herts, UK) using the Levenberg-Marquardt 4 parameter fitting procedure with finite different gradients.

`Cn1cc(-c2ccc3cnc(NC(=O)C45CCN(CC4)CC5)cc3c2)cn1` [Compound 1071, N-(6-(1-Methyl-1H-pyrazol-4-yl)isoquinolin-3-yl)quinuclidine-4-carboxamide]: in the assay with IL-6 in huPBMCs, the “percent in parentheses beside EC50 >10 μM” value was found to be 8.8%.
Take `CC(C)CN1CCC[C@@H](C(=O)Nc2cc3cc(-c4cnn5c4CN(CCF)CC5)ccc3cn2)C1` [Compound 1002, (R)—N-(6-(5-(2-Fluoroethyl)-4,5,6,7-tetrahydropyrazolo[1,5-a]pyrazin-3-yl)isoquinolin-3-yl)-1-isobutylpiperidine-3-carboxamide]: the “percent in parentheses beside EC50 >10 μM” value in assay [1] is 27.5%.
For `Cn1cc(-c2ccc3cnc(NC(=O)C4CCN(CC(C)(C)O)CC4)cc3c2)nn1` [Compound 1070, 1-(2-Hydroxy-2-methylpropyl)-N-(6-(1-methyl-1H-1,2,3-triazol-4-yl)isoquinolin-3-yl)piperidine-4-carboxamide], the EC50 (as a rule, the concentration needed to bring the measured effect to its halfway point) in assay [2] (Homo sapiens, 96 h) worked out at 8390 nM; with IL-6, BV-2 cells (Mus musculus) it was 14 nM; with IL-6 in huPBMCs (Homo sapiens, PBMC), 6470 nM; in assay [3] (Homo sapiens), 738 nM; on DYRK1A kinase it was 7.6 nM; in assay [4] (setting [6]) it was 91 nM. Moreover, the 50% effective concentration (EC50) on GSK3β kinase worked out at 16 nM.
Regarding `Cn1cc(-c2ccc3cnc(NC(=O)CN4C5CCC4COC5)cc3c2)cn1` [Compound 347, 2-(3-Oxa-8-azabicyclo[3.2.1]octan-8-yl)-N-(6-(1-methyl-1H-pyrazol-4-yl)isoquinolin-3-yl)acetamide], the “percent in parentheses beside EC50 >10 μM” value with IL-6 in huPBMCs is given as 4.5%.
For the compound `Cn1cncc1-c1ccc2cnc(NC(=O)C3C(C)(C)C3(C)C)cc2c1` [Compound 269, 2,2,3,3-Tetramethyl-N-[6-(3-methylimidazol-4-yl)-3-isoquinolyl]cyclopropanecarboxamide], the half-maximal inhibitory concentration (IC50) (in general, the concentration that inhibits the measured activity by half) in [5] is greater than 10000 nM.
As to `Cn1cc(-c2ccc3cnc(NC(=O)C4C(C)(C)C4(C)C)cc3c2)nn1` [Compound 277, 2,2,3,3-Tetramethyl-N-(6-(1-methyl-1H-1,2,3-triazol-4-yl)isoquinolin-3-yl) cyclopropane-1-carboxamide], the “percent in parentheses beside EC50 >10 μM” value in the assay with IL-6 in huPBMCs turned out to be 4.0%.
Regarding `C[C@H](F)CN1CCC(C(=O)Nc2cc3cc(-c4cnn(C)c4)ccc3cn2)CC1` [Compound 311, (S)-1-(2-Fluoropropyl)-N-(6-(1-methyl-1H-pyrazol-4-yl)isoquinolin-3-yl) piperidine-4-carboxamide], the EC50 in [2] (Homo sapiens, 96 h) came out at 751 nM; with IL-6 in huPBMCs (Homo sapiens, PBMC), 396 nM; in [3] (Homo sapiens) it was 578 nM; in assay [4] (setting [6]), 163 nM; in assay [1] (setting [7]), 76 nM.
Take `Cn1cc(-c2ccc3cnc(NC(=O)CN4C5CCC4CC5)cc3c2)nn1` [Compound 513, 2-(7-Azabicyclo[2.2.1]heptan-7-yl)-N-(6-(1-methyl-1H-1,2,3-triazol-4-yl)isoquinolin-3-yl)acetamide]: the “percent in parentheses beside EC50 >10 μM” value in the assay with IL-6 in huPBMCs is 14.5%.
For `CN1CCN(C[C@H]2CC[C@H](C(=O)Nc3cc4cc(-c5cnco5)ccc4cn3)CC2)CC1` [Compound 1007, trans-4-((4-methylpiperazin-1-yl)methyl)-N-(6-(oxazol-5-yl)isoquinolin-3-yl)cyclohexane-1-carboxamide], the concentration giving a half-maximal response (EC50) in assay [2] (Homo sapiens, 96 h) is 922 nM; in the assay on IL-6 in huPBMCs (Homo sapiens, PBMC), 1260 nM; in assay [3] (Homo sapiens) it was 1130 nM; at DYRK1A kinase (setting [8]), 2.4 nM; in assay [4] (setting [6]) it was 435 nM; on GSK3β kinase (setting [9]), 83 nM. A half-maximal response in [1] (setting [7]) (EC50) required 942 nM.
“1-Isobutyl-N-(6-(5-methyl-1,3,4-oxadiazol-2-yl)isoquinolin-3-yl)piperidine-4-carboxamide [Compound 1020]”: the EC50 in assay [2] stood at 1030 nM; in the assay on TNFα, BV-2 cells, 597 nM; with IL-6, BV-2 cells, 87 nM; with IL-6 in huPBMCs it was 1180 nM; in assay [3], 1140 nM; at DYRK1A kinase (setting [8]), 10.4 nM. Also, the concentration for a half-maximal effect (EC50) in assay [4] (setting [10]) is 49 nM; on GSK3β kinase (setting [9]), 13 nM; in [1] (dose-response 10 μM to […]), greater than 10000 nM; in the assay on KC-GRO, BV-2 cells, 708 nM. The “percent in parentheses beside EC50 >10 μM” value in [1] stood at 30.6%.
Consider `CO[C@H]1CC[C@@H](C(=O)Nc2cc3cc(-c4nnc(C)s4)ccc3cn2)CC1` [Compound 1001, cis-4-Methoxy-N-(6-(5-methyl-1,3,4-thiadiazol-2-yl)isoquinolin-3-yl) cyclohexane-1-carboxamide], for which the inhibition at 10 µM in the assay on IL-6 in huPBMCs (Homo sapiens, PBMC, read-out: percent in parentheses beside EC50 >10 μM) worked out at 49.7%.
`Cc1nnc(-c2ccc3cnc(NC(=O)CN4C5CCC4CC5)cc3c2)s1` [Compound 959, 2-(7-Azabicyclo[2.2.1]heptan-7-yl)-N-(6-(5-methyl-1,3,4-thiadiazol-2-yl)isoquinolin-3-yl)acetamide]: in the assay with IL-6 in huPBMCs, the “percent in parentheses beside EC50 >10 μM” value is given as 6.1%.
Turning to `Cc1nnc(-c2ccc3cnc(NC(=O)CN4CCCOCC4)cc3c2)s1` [Compound 1049, N-(6-(5-Methyl-1,3,4-thiadiazol-2-yl)isoquinolin-3-yl)-2-(1,4-oxazepan-4-yl) acetamide], in assay [2] (at 10 μM, given for EC50 of >10 μM), the “percent inhibition at 10 μM” value amounted to 31.3%. For the same compound, the EC50 in assay [2] is greater than 10000 nM; in the assay on IL-6 in huPBMCs, greater than 10000 nM; in assay [3] it was 2540 nM; in assay [4] (setting [10]), 319 nM. In addition, the “percent in parentheses beside EC50 >10 μM” value with IL-6 in huPBMCs stood at 10.4%.
Take `CCN1/C(=C/C(C)=O)Sc2ccc(O)cc21` [Indy, reference compound]: the half-maximal effective concentration (EC50) in assay [4] (control compounds, read-out: EC50 in the Tau assay) is greater than 10000 nM.
Turning to `Cc1nnc(-c2ccc3cnc(NC(=O)CN4C5CCC4COC5)cc3c2)s1` [Compound 962, 2-(3-Oxa-8-azabicyclo[3.2.1]octan-8-yl)-N-(6-(5-methyl-1,3,4-thiadiazol-2-yl)isoquinolin-3-yl)acetamide], the “percent in parentheses beside EC50 >10 μM” value in the assay with IL-6 in huPBMCs came out at 9.6%.
